Experimental findings from PMC10175918 (Communications Biology, 2023) are described below.

Read-outs that look alike come from different tables or passages of the source.

What all share (test): TGFα-shedding assay-based GPCR screening with chimeric Gα subunit proteins
Holding throughout (assay type): cell-based

Assay [1] has as its target T1, 348 GPCRs (Homo sapiens, UniProt O75388).
T1 construct: expressed in transfected cells; host or cells: HEK293A
The conditions noted are these: 10µM, Favipiravir 100μM.

The target of assay [2] is T2, 348 GPCRs (Homo sapiens, UniProt P04201).
T2 construct: expressed in transfected cells; host or cells: HEK293A
T2 sequence (P04201 1-325): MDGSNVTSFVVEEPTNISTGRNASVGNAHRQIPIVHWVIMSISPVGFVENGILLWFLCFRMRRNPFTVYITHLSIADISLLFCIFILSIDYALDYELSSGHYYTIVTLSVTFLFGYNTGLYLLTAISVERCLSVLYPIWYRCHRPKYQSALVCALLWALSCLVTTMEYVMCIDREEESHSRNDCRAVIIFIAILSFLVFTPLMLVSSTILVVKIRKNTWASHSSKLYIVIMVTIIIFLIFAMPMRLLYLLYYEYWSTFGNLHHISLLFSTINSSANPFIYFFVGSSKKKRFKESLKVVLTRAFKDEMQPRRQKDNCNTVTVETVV

The target of assay [3] is T3, 348 GPCRs (Homo sapiens, UniProt P21730).
T3 construct: expressed in transfected cells; host or cells: HEK293A
T3 sequence (P21730 1-350): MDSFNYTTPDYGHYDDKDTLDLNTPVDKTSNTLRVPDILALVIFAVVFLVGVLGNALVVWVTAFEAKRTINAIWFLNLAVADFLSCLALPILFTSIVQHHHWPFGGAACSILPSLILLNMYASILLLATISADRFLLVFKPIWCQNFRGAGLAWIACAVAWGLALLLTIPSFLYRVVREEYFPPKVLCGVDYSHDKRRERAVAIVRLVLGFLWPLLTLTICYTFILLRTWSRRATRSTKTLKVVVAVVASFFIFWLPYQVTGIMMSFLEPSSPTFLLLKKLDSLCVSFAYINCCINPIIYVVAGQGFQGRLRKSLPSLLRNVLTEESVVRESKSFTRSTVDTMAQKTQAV
The conditions noted are these: 10µM, Favipiravir 100μM.

Assay [4] concerns the target T4, 348 GPCRs (Homo sapiens, UniProt P25090).
T4 sequence (P25090 1-351): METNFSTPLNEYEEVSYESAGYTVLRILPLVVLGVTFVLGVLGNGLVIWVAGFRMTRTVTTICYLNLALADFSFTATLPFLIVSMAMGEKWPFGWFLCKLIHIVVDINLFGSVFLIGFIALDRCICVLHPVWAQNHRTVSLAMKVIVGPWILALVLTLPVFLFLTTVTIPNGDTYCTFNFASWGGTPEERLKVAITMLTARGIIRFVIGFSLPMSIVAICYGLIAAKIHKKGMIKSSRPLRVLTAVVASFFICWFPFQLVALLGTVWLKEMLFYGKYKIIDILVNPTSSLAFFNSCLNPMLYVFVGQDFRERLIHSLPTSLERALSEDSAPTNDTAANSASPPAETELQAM
The conditions noted are these: 10µM, Favipiravir 100μM.

Assay [5] has as its target T5, 348 GPCRs (Homo sapiens, UniProt P50052).
T5 construct: expressed in transfected cells; host or cells: HEK293A
T5 sequence (P50052 1-363): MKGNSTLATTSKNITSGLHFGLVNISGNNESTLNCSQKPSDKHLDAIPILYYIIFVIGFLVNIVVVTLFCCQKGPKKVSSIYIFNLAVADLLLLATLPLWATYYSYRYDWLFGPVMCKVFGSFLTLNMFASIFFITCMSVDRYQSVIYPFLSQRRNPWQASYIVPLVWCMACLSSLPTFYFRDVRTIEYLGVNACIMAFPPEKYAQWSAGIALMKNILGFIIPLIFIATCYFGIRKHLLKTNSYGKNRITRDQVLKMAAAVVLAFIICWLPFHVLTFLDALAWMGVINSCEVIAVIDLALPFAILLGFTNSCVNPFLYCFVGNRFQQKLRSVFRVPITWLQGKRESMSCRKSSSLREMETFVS
The conditions noted are these: 10µM, Favipiravir 100μM.

For assay [6], the target named is T6, 348 GPCRs (Homo sapiens, UniProt Q9Y271).
T6 construct: expressed in transfected cells; host or cells: HEK293A
T6 sequence (Q9Y271 1-337): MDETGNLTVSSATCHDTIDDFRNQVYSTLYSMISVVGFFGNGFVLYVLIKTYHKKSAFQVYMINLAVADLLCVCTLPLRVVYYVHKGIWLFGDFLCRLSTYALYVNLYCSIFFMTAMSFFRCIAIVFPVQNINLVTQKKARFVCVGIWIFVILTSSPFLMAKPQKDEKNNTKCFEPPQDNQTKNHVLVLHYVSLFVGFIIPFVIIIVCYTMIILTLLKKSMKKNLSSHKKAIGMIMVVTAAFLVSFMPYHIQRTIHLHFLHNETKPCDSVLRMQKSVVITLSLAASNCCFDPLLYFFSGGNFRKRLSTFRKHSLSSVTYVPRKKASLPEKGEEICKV

[7] abbreviates: GPR32 (G protein-coupled receptor 32), read-out: % GPCR activation compared to TPA.
The mark [8] stands for this setting: GPCR MAS1 (MAS1 oncogene), read-out: % GPCR activation compared to TPA.
[9] abbreviates: C5AR1 (complement C5a receptor 1), read-out: % GPCR activation compared to TPA.
Setting [10] is: FPR2 (formyl peptide receptor 2), read-out: % GPCR activation compared to TPA.
Setting [11] is: AGTR2 (angiotensin II receptor, type 2), read-out: % GPCR activation compared to TPA.
The mark [12] stands for this setting: GPCR CysLT1 (cysteinyl leukotriene receptor 1), read-out: % GPCR activation compared to TPA.
[13] abbreviates: read-out: % GPCR activation compared to TPA, GPR32 (G protein-coupled receptor 32).
The mark [14] stands for this setting: read-out: % GPCR activation compared to TPA, GPCR MAS1 (MAS1 oncogene).
Where [15] appears, read: read-out: % GPCR activation compared to TPA, C5AR1 (complement C5a receptor 1).
Setting [16] is: read-out: % GPCR activation compared to TPA, FPR2 (formyl peptide receptor 2).
Where [17] appears, read: read-out: % GPCR activation compared to TPA, AGTR2 (angiotensin II receptor, type 2).
Where [18] appears, read: read-out: % GPCR activation compared to TPA, GPCR CysLT1 (cysteinyl leukotriene receptor 1).

T1 sequence (O75388 whole entry): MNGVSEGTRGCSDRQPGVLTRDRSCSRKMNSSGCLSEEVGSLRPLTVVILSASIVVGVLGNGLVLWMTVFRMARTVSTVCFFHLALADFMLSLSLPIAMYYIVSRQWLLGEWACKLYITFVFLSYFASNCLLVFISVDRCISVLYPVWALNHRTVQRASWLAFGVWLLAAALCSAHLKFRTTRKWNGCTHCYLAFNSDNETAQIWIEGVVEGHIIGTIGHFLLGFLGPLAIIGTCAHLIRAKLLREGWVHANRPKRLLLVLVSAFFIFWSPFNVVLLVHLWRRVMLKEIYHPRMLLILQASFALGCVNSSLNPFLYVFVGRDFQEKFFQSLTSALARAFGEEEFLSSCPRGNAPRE

`CC(C)C(=O)OC[C@H]1O[C@@H](n2ccc(NO)nc2=O)[C@H](O)[C@@H]1O` [molnupiravir]: the activation at 10 µM was -4.1% in assay [1] (setting [7]); -15.3% in assay [2] (setting [8]); -2.78% in assay [3] (setting [9]); 0.537% in assay [5] (setting [11]); -1.72% in assay [6] (setting [12]). In addition, in assay [4] (setting [10]), the activation at 100 µM is -1.5%.

Take `CC(C)OC(=O)[C@H](C)N[P@](=O)(OC[C@H]1O[C@@H](n2ccc(=O)[nH]c2=O)[C@](C)(F)[C@@H]1O)Oc1ccccc1` [sofosbuvir]: the activation at 10 µM was -3.92% in assay [1] (setting [13]); 2.48% in assay [2] (setting [14]); -2.89% in assay [3] (setting [15]); 1.67% in assay [5] (setting [17]); -1.58% in assay [6] (setting [18]). Also, the activation at 100 µM in assay [4] (setting [16]) was -1.57%.

For the molecule `N#C[C@@]1(c2ccc3c(N)ncnn23)O[C@H](CO)[C@@H](O)[C@H]1O` [GS441524], the activation at 10 µM in assay [1] (setting [7]) is 1.37%; in assay [2] (setting [8]), -19.1%; in assay [3] (setting [9]) it was -2.17%; in assay [5] (setting [11]), 0.337%; in assay [6] (setting [12]), -1.14%. The activation at 100 µM in assay [4] (setting [10]) is -0.97%.

In the case of `NC(=O)c1nc(F)cnc1O` [favipiravir, 6-fluoro-3-hydroxy-2-pyrazinecarboxamide], the activation at 10 µM is 0.0718% in assay [1] (setting [7]), -6.83% in assay [3] (setting [9]) and 0.741% in assay [5] (setting [11]). The activation at 100 µM was -7.84% in assay [2] (GPCR MAS1 (MAS1 oncogene), 100μM, read-out: % GPCR activation compared to TPA); -3.31% in assay [4] (setting [10]); -0.478% in assay [6] (GPCR CysLT1 (cysteinyl leukotriene receptor 1), 100μM, read-out: % GPCR activation compared to TPA).

On to `CCC(CC)COC(=O)[C@H](C)N[P@](=O)(OC[C@H]1O[C@@](C#N)(c2ccc3c(N)ncnn23)[C@H](O)[C@@H]1O)Oc1ccccc1` [remdesivir], for which the activation at 10 µM in assay [1] (setting [13]) is 1.78%; in assay [2] (setting [14]), 21.3%; in assay [3] (setting [15]), -1.43%; in assay [5] (setting [17]), 0.676%; in assay [6] (setting [18]), 0.442%. For the same molecule, the activation at 100 µM in assay [4] (setting [16]) was -0.745%.
